Results reported in the NIST ThermoML archive (doi:10.1021/acs.jced.9b00846).

Conditions: Liquid, Vibrating tube method

CC(C)CC(C)C [2,4-dimethylpentane]
Conditions | mass density [kg/m3]
283.15 K, 95 kPa | 681.7
283.15 K, 4961 kPa | 686.3
283.15 K, 9969 kPa | 690.9
283.15 K, 14980 kPa | 695.1
283.15 K, 19985 kPa | 699.1
283.15 K, 25039 kPa | 702.9
283.15 K, 30016 kPa | 706.5
283.15 K, 35089 kPa | 710
283.15 K, 40016 kPa | 713.3
283.15 K, 45012 kPa | 716.4
283.15 K, 49972 kPa | 719.5
283.15 K, 54980 kPa | 722.4
283.15 K, 59931 kPa | 725.3
283.15 K, 65047 kPa | 728.1
288.15 K, 127 kPa | 677.3
288.15 K, 4984 kPa | 682.2
288.15 K, 9987 kPa | 686.8
288.15 K, 14976 kPa | 691.2
288.15 K, 19996 kPa | 695.3
288.15 K, 24895 kPa | 699.2
288.15 K, 30002 kPa | 703
288.15 K, 34983 kPa | 706.5
288.15 K, 40000 kPa | 709.9
288.15 K, 44974 kPa | 713.1
288.15 K, 49950 kPa | 716.2
288.15 K, 55010 kPa | 719.3
288.15 K, 60065 kPa | 722.2
288.15 K, 64958 kPa | 725
293.15 K, 83 kPa | 672.8
293.15 K, 4982 kPa | 677.9
293.15 K, 9969 kPa | 682.7
293.15 K, 15059 kPa | 687.3
293.15 K, 19914 kPa | 691.5
293.15 K, 25056 kPa | 695.6
293.15 K, 29936 kPa | 699.3
293.15 K, 34976 kPa | 703
293.15 K, 39994 kPa | 706.4
293.15 K, 44992 kPa | 709.8
293.15 K, 50030 kPa | 713
293.15 K, 54953 kPa | 716
293.15 K, 59933 kPa | 719
293.15 K, 65045 kPa | 721.9
298.15 K, 92 kPa | 668.3
298.15 K, 4941 kPa | 673.6
298.15 K, 9982 kPa | 678.6
298.15 K, 14991 kPa | 683.3
298.15 K, 19963 kPa | 687.6
298.15 K, 25048 kPa | 691.8
298.15 K, 29972 kPa | 695.7
298.15 K, 34945 kPa | 699.4
298.15 K, 39958 kPa | 702.9
298.15 K, 45007 kPa | 706.4
298.15 K, 49963 kPa | 709.6
298.15 K, 55008 kPa | 712.8
298.15 K, 60003 kPa | 715.8
298.15 K, 65017 kPa | 718.8
303.15 K, 72 kPa | 663.8
303.15 K, 4969 kPa | 669.3
303.15 K, 9974 kPa | 674.5
303.15 K, 14963 kPa | 679.3
303.15 K, 19981 kPa | 683.9
303.15 K, 25047 kPa | 688.2
303.15 K, 29954 kPa | 692.1
303.15 K, 34987 kPa | 695.9
303.15 K, 39964 kPa | 699.6
303.15 K, 45006 kPa | 703.1
303.15 K, 49991 kPa | 706.4
303.15 K, 55060 kPa | 709.7
303.15 K, 59991 kPa | 712.8
303.15 K, 65054 kPa | 715.8
308.15 K, 100 kPa | 659.4
308.15 K, 4987 kPa | 665.1
308.15 K, 9965 kPa | 670.4
308.15 K, 15040 kPa | 675.5
308.15 K, 19960 kPa | 680.1
308.15 K, 24964 kPa | 684.4
308.15 K, 30076 kPa | 688.7
308.15 K, 34985 kPa | 692.5
308.15 K, 39972 kPa | 696.2
308.15 K, 44972 kPa | 699.8
308.15 K, 49955 kPa | 703.2
308.15 K, 54996 kPa | 706.5
308.15 K, 60063 kPa | 709.7
308.15 K, 65021 kPa | 712.7
313.15 K, 108 kPa | 654.9
313.15 K, 5004 kPa | 660.8
313.15 K, 10013 kPa | 666.4
313.15 K, 15049 kPa | 671.6
313.15 K, 19963 kPa | 676.3
313.15 K, 25062 kPa | 680.9
313.15 K, 29960 kPa | 685
313.15 K, 34942 kPa | 689
313.15 K, 40039 kPa | 692.9
313.15 K, 45017 kPa | 696.6
313.15 K, 50065 kPa | 700.1
313.15 K, 54977 kPa | 703.4
313.15 K, 59923 kPa | 706.6
313.15 K, 64996 kPa | 709.7
318.15 K, 110 kPa | 650.2
318.15 K, 5061 kPa | 656.5
318.15 K, 9957 kPa | 662.2
318.15 K, 15002 kPa | 667.6
318.15 K, 19980 kPa | 672.5
318.15 K, 25013 kPa | 677.1
318.15 K, 30045 kPa | 681.5
318.15 K, 34965 kPa | 685.6
318.15 K, 39938 kPa | 689.5
318.15 K, 44971 kPa | 693.2
318.15 K, 49989 kPa | 696.8
318.15 K, 55009 kPa | 700.2
318.15 K, 59952 kPa | 703.5
318.15 K, 65056 kPa | 706.7
323.15 K, 121 kPa | 645.6
323.15 K, 5001 kPa | 652.1
323.15 K, 10007 kPa | 658.1
323.15 K, 15037 kPa | 663.6
323.15 K, 19969 kPa | 668.7
323.15 K, 25018 kPa | 673.5
323.15 K, 29938 kPa | 677.9
323.15 K, 35006 kPa | 682.2
323.15 K, 39965 kPa | 686.1
323.15 K, 45012 kPa | 690
323.15 K, 49970 kPa | 693.6
323.15 K, 54953 kPa | 697.1
323.15 K, 59965 kPa | 700.4
323.15 K, 65022 kPa | 703.7
328.15 K, 98 kPa | 641
328.15 K, 5010 kPa | 647.8
328.15 K, 9934 kPa | 653.9
328.15 K, 14950 kPa | 659.6
328.15 K, 19968 kPa | 664.9
328.15 K, 25011 kPa | 669.8
328.15 K, 30040 kPa | 674.5
328.15 K, 34952 kPa | 678.7
328.15 K, 39959 kPa | 682.8
328.15 K, 45017 kPa | 686.8
328.15 K, 49935 kPa | 690.4
328.15 K, 54941 kPa | 694
328.15 K, 59962 kPa | 697.4
328.15 K, 65006 kPa | 700.8
333.15 K, 92 kPa | 636.3
333.15 K, 4968 kPa | 643.3
333.15 K, 9977 kPa | 649.8
333.15 K, 15014 kPa | 655.7
333.15 K, 19986 kPa | 661.1
333.15 K, 25001 kPa | 666.2
333.15 K, 29959 kPa | 670.9
333.15 K, 34922 kPa | 675.3
333.15 K, 39972 kPa | 679.5
333.15 K, 45064 kPa | 683.6
333.15 K, 50006 kPa | 687.3
333.15 K, 54975 kPa | 691
333.15 K, 59984 kPa | 694.5
333.15 K, 64995 kPa | 697.8
338.15 K, 107 kPa | 631.7
338.15 K, 5007 kPa | 639.1
338.15 K, 9978 kPa | 645.7
338.15 K, 14968 kPa | 651.8
338.15 K, 19968 kPa | 657.4
338.15 K, 25042 kPa | 662.7
338.15 K, 30018 kPa | 667.5
338.15 K, 35052 kPa | 672.1
338.15 K, 39990 kPa | 676.3
338.15 K, 45087 kPa | 680.5
338.15 K, 49968 kPa | 684.3
338.15 K, 55044 kPa | 688.1
338.15 K, 60031 kPa | 691.6
338.15 K, 64997 kPa | 695
343.15 K, 98 kPa | 626.8
343.15 K, 4944 kPa | 634.4
343.15 K, 10008 kPa | 641.5
343.15 K, 14958 kPa | 647.7
343.15 K, 19959 kPa | 653.5
343.15 K, 25045 kPa | 658.9
343.15 K, 30012 kPa | 663.9
343.15 K, 34980 kPa | 668.5
343.15 K, 40024 kPa | 672.9
343.15 K, 44956 kPa | 677.1
343.15 K, 50037 kPa | 681.1
343.15 K, 55010 kPa | 684.9
343.15 K, 59979 kPa | 688.5
343.15 K, 65088 kPa | 692.1
348.15 K, 103 kPa | 622
348.15 K, 4998 kPa | 630
348.15 K, 9948 kPa | 637.2
348.15 K, 15016 kPa | 643.8
348.15 K, 19991 kPa | 649.7
348.15 K, 25051 kPa | 655.3
348.15 K, 29994 kPa | 660.3
348.15 K, 34970 kPa | 665.1
348.15 K, 39979 kPa | 669.6
348.15 K, 45063 kPa | 673.9
348.15 K, 50024 kPa | 678
348.15 K, 54974 kPa | 681.8
348.15 K, 59994 kPa | 685.5
353.15 K, 1014 kPa | 618.8
353.15 K, 5010 kPa | 625.6
353.15 K, 9950 kPa | 633
353.15 K, 15037 kPa | 639.9
353.15 K, 19996 kPa | 646
353.15 K, 25024 kPa | 651.7
353.15 K, 29983 kPa | 656.9
353.15 K, 34950 kPa | 661.8
353.15 K, 40060 kPa | 666.5
353.15 K, 45017 kPa | 670.8
353.15 K, 49987 kPa | 674.9
353.15 K, 54976 kPa | 678.9
353.15 K, 59989 kPa | 682.7
358.15 K, 5026 kPa | 621
358.15 K, 9954 kPa | 628.7
358.15 K, 15017 kPa | 635.8
358.15 K, 19926 kPa | 642
358.15 K, 25014 kPa | 647.9
358.15 K, 30045 kPa | 653.4
358.15 K, 35004 kPa | 658.3
358.15 K, 40013 kPa | 663.1
358.15 K, 44988 kPa | 667.5
358.15 K, 49996 kPa | 671.7
358.15 K, 55037 kPa | 675.8
358.15 K, 60020 kPa | 679.6
358.15 K, 65016 kPa | 683.3
363.15 K, 4947 kPa | 616.2
363.15 K, 10031 kPa | 624.5
363.15 K, 15019 kPa | 631.7
363.15 K, 19970 kPa | 638.2
363.15 K, 25122 kPa | 644.3
363.15 K, 30059 kPa | 649.8
363.15 K, 35064 kPa | 654.9
363.15 K, 40055 kPa | 659.8
363.15 K, 45078 kPa | 664.3
363.15 K, 49933 kPa | 668.5
363.15 K, 54989 kPa | 672.7
363.15 K, 59992 kPa | 676.6
363.15 K, 65058 kPa | 680.3
